Test results: ChEMBL document CHEMBL5244229, “Thiazole-containing compounds as therapeutic targets for cancer therapy” (Eur J Med Chem, 2020)
pIC50: −log10 of the molar value. Values after ≈ are worked out from the molar mass of the structure shown.

What was measured:
A549 [1] = test: Anticancer activity against human A549 cells assessed as reduction of cell viability at 100 micromol relative to control; type: functional; conditions: dose 100 µmol
A549 [2] = test: Anticancer activity against human A549 cells assessed as reduction of cell viability at 25 micromol relative to control; type: functional; conditions: dose 25 µmol
HepG2 [3] = test: Anticancer activity against human HepG2 cells assessed as inhibition of cell proliferation at 25 uM measured after 24 hrs by MTT assay; type: functional, cell-based; conditions: HepG2, 24 h
HeLa [4] = test: Antiproliferative activity against human HeLa cells assessed as cell growth inhibition by MTT assay; type: functional, cell-based
MDA-MB-231 [5] = test: Antiproliferative activity against human MDA-MB-231 cells assessed as reduction in cell growth after 72 hrs; type: functional, cell-based; conditions: MDA-MB-231, 72 h
HeLa [6] = test: Antiproliferative activity against human HeLa cells assessed as reduction in cell growth after 72 hrs; type: functional, cell-based
MDA-MB-231 [7] = test: Antiproliferative activity against human MDA-MB-231 cell line assessed as cell growth inhibition by MTT assay; type: functional, cell-based
OVCAR-5 = test: Cytotoxicity against human OVCAR-5 cells; type: functional
HCC 2998 = test: Cytotoxicity against human HCC 2998 cells; type: functional
OVCAR-4 = test: Cytotoxicity against human OVCAR-4 cells; type: functional
IGROV-1 = test: Cytotoxicity against human IGROV-1 cells; type: functional
NCI-H226 = test: Cytotoxicity against human NCI-H226 cells; type: functional
NCI-H460 [8] = test: Cytotoxicity against human NCI-H460 cells; type: functional, cell-based
MCF7 [9] = test: Cytotoxicity against human MCF7 cells; type: functional, cell-based
HCT-8 = test: Anticancer activity against human HCT-8 cells at 5 microg/ml relative to control; type: functional; conditions: dose 5 µg/ml
A549 [10] = test: Antiproliferative activity against human A549 cells relative to control; type: functional
NCI-H460 [11] = test: Potency index, ratio of MKT-077 IC50 to test compound IC50 for antitumor activity against human NCI-H460 cells; type: functional
NCI-H460 [12] = test: Antitumor activity against human NCI-H460 cells; type: functional, cell-based
A549 [13] = test: Cytotoxicity against human A549 cells assessed as inhibition of cell growth by MTT assay; type: functional, cell-based
[14] = Cytotoxicity against human HPDE cells assessed as induction of cell death at 5.51 uM; type: functional
HepG2 [15] = test: Antiproliferative activity against human HepG2 cells assessed as reduction in cell viability; type: functional, cell-based
HeLa [16] = test: Antiproliferative activity against human HeLa cells assessed as reduction in cell viability; type: functional, cell-based
Hs-578T = test: Antiproliferative activity against human Hs-578T cells assessed as reduction in cell viability; type: functional, cell-based
SF-268 = test: Cytotoxicity against human SF-268 cells assessed as inhibition of cell growth; type: functional
MCF7 [17] = test: Cytotoxicity against human MCF7 cells assessed as inhibition of cell growth; type: functional
NCI-H460 [18] = test: Cytotoxicity against human NCI-H460 cells assessed as inhibition of cell growth; type: functional
A549 [19] = test: Induction of apoptosis in human A549 cells assessed as late apoptotic cells for 24 hrs by FITC-annexin V/PI based flow cytometry; type: functional
A549 [20] = test: Induction of apoptosis in human A549 cells assessed as early apoptotic cells for 24 hrs by FITC-annexin V/PI based flow cytometry; type: functional
C6 [21] = test: Induction of apoptosis in rat C6 cells assessed as early apoptotic cells for 24 hrs by FITC-annexin V/PI based flow cytometry; type: functional
C6 [22] = test: Inhibition of Akt in rat C6 cells measured after 30 mins by ELISA analysis; type: cell-based
C6 [23] = test: Induction of apoptosis in rat C6 cells assessed as late apoptotic cells for 24 hrs by FITC-annexin V/PI based flow cytometry; type: functional
A549 [24] = test: Antiproliferative activity against human A549 cells assessed as reduction in cell viability incubated for 4 days by MTT assay; type: functional, cell-based; conditions: A549, 96 h
HepG2 [25] = test: Antiproliferative activity against human HepG2 cells assessed as reduction in cell viability incubated for 4 days by MTT assay; type: functional, cell-based; conditions: HepG2, 96 h
A-431 = test: Antiproliferative activity against human A-431 cells assessed as reduction in cell viability incubated for 4 days by MTT assay; type: functional, cell-based; conditions: A-431, 96 h
[26] = Antiproliferative activity against human SK-RC-52 cells assessed as reduction in cell viability incubated for 4 days by MTT assay; type: functional, cell-based; conditions: SK-RC-52, 96 h
SW-620 = test: Antiproliferative activity against human SW620 cells assessed as reduction in cell viability incubated for 4 days by MTT assay; type: functional, cell-based; conditions: SW-620, 96 h
PC-3 [27] = test: Anticancer activity against human PC-3 cells; type: functional, cell-based
PC-3 [28] = test: Cytotoxicity against human PC-3 cells; type: functional
MCF7 [29] = test: Induction of apoptosis in human MCF7 cells assessed as dead cells at 10 uM measured after 6 hrs by annexin V-FITC/propidium iodide staining based flow cytometry analysis (reference value: 5.14+/-0.44%); type: functional
HCT-116 [30] = test: Antiproliferative activity against human HCT-116 cells assessed as reduction in cell viability; type: functional, cell-based
A549 [31] = test: Antiproliferative activity against human A549 cells; type: functional, cell-based
HEK293 = test: Antiproliferative activity against human HEK293 cells; type: functional
[32] = Antiproliferative activity against human HLF cells; type: functional
[33] = Anticancer activity against human LNCaP/AR cells; type: functional, cell-based
Colon 26 [34] = test: Cytotoxicity against mouse Colon 26 cells assessed as inhibition of cell growth; type: functional, cell-based
Tubulin = Tubulin (Bos taurus, UniProt Q6B856+Q862L2+Q862F3); test: Antitubulin activity against bovine brain tubulin polymerization by spectrophotometric method
Colon 26 [35] = test: Antitumor activity against mouse Colon 26 cells xenografted in mouse assessed as tumor suppression rate at 40 mg/kg, po; type: functional
HepG2 [36] = test: Cytotoxicity against human HepG2 cells assessed as reduction in cell viability at 200 uM incubated for 48 hrs by MTT assay; type: functional
MCF7 [37] = test: Antiproliferative activity against human MCF7 cells assessed as reduction in cell viability incubated for 24 hrs by Celltiter-Glo cell viability assay; type: functional, cell-based; conditions: MCF7, 24 h
MV4-11 [38] = test: Antiproliferative activity against human MV4-11 cells assessed as reduction in cell viability incubated for 24 hrs by Celltiter-Glo cell viability assay; type: functional, cell-based; conditions: MV4-11, 24 h
BALB/3T3 = test: Antiproliferative activity against mouse BALB/3T3 cells assessed as reduction in cell viability incubated for 24 hrs by Celltiter-Glo cell viability assay; type: functional, cell-based; conditions: BALB/3T3, 24 h
HCT-116 [39] = test: Anticancer activity against human HCT-116 cells; type: functional, cell-based
MV4-11 [40] = test: Anticancer activity against human MV4-11 cells; type: functional, cell-based
HCT-116 [41] = test: Antiproliferative activity against human HCT-116 cells assessed as reduction in cell viability incubated for 24 hrs by Celltiter-Glo cell viability assay; type: functional, cell-based; conditions: HCT-116, 24 h
SK-NEP-1 = test: Anticancer activity against human SK-NEP-1 cells assessed as inhibition of cell growth; type: functional, cell-based
Ca-Ski = test: Anticancer activity against human Ca-Ski cells assessed as inhibition of cell growth; type: functional, cell-based
HepG2 [42] = test: Cytotoxicity against human HepG2 cells assessed as reduction in cell viability at 200 uM incubated for 24 hrs by MTT assay; type: functional, cell-based; conditions: HepG2, 24 h
HCT-116 [43] = test: Antiproliferative activity against human HCT-116 cells assessed as cell growth inhibition; type: functional
Cytochrome P450 = test: Inhibition of CYP450 in human liver microsomes; type: ADME, Microsome
HepG2 [44] = test: Anticancer activity against human HepG2 cells assessed as inhibition of cell proliferation at 50 uM measured after 24 hrs by MTT assay; type: functional, cell-based; conditions: HepG2, 24 h
[45] = Anticancer activity against human Colon carcinoma cell; type: functional
Ovarian carcinoma cell = test: Anticancer activity against human Ovarian carcinoma cell; type: functional
[46] = Anticancer activity against human Melanoma tumor cell line; type: functional
A549 [47] = test: Antiproliferative activity against human A549 cells assessed as reduction in cell viability; type: functional, cell-based

## c1ccc(Nc2nc3ccc4cn[nH]c4c3s2)cc1
A549 [1]
  % viability reduction: 78.8%
A549 [2]
  % viability reduction: 72.1%

## Cc1ccc(C2NC(=S)Nc3nc(Nc4ccc(S(N)(=O)=O)cc4)sc32)cc1 (centres undefined)
HepG2 [3]
  pIC50: 4.37

## Cc1csc(N/N=C/c2ccccc2)n1
HeLa [4]
  IC50: 11.4 µg/mL (≈ 52.5 µM)
MDA-MB-231 [5]
  IC50: 3.92 µg/mL (≈ 18 µM)
HeLa [6]
  IC50: 11.4 µg/mL (≈ 52.5 µM)
MDA-MB-231 [7]
  IC50: 3.92 µg/mL (≈ 18 µM)

## Cc1cc(-c2nc3cc(F)ccc3s2)ccc1N
OVCAR-5
  GI50: < 100 nM
HCC 2998
  GI50: < 10 nM
OVCAR-4
  GI50: < 100 nM
IGROV-1
  GI50: < 10 nM
NCI-H226
  GI50: < 10 nM
NCI-H460 [8]
  GI50: < 10 nM
MCF7 [9]
  GI50: < 100 nM

## Cc1cc(Cl)ccc1NC(=O)c1sc(-c2ccccc2Cl)nc1C(F)(F)F
HCT-8
  Activity: 40%
A549 [10]
  Activity: 48%

## CCN1C(=O)/C(=C2\Sc3ccccc3N2C)S/C1=N\[n+]1cccc2ccccc21.[I-]
NCI-H460 [11]
  Ratio IC50: 216.7
NCI-H460 [12]
  pIC50: 8.22

## COC(=O)Nc1nc2cc(C(=O)c3cccs3)ccc2[nH]1 [NOCODAZOLE]
A549 [13]
  pIC50: 5.74

## C/C(=N/Nc1nc(-c2cc3ccccc3oc2=O)cs1)c1cc2ccccc2oc1=O
[14]
  Activity: 50%

## CNc1nc(CC(=O)N/N=C/c2coc3ccccc3c2=O)cs1
HepG2 [15]
  pIC50: 5.29
HeLa [16]
  pIC50: 6.08
Hs-578T
  pIC50: 5.31

## C/C(=N/NC(=O)c1sc(=S)n(-c2ccccc2)c1N)c1cccnc1
SF-268
  GI50: 94 nM
MCF7 [17]
  GI50: 42.8 nM
NCI-H460 [18]
  GI50: 94 nM

## N#Cc1ccc(Oc2ccc(/C=N/Nc3nc(-c4ccc(C#N)cc4)cs3)cc2)cc1
A549 [19]
  Activity: 36.5%
A549 [20]
  Activity: 2.3%
C6 [21]
  Activity: 4.6%
C6 [22]
  inhibition: 71.7%
C6 [23]
  Activity: 28.2%

## O=C(CCl)Nc1ccc2nc(SCC(=O)Nc3ccc(Br)cn3)sc2c1
A549 [24]
  pIC50: 7.36
HepG2 [25]
  pIC50: 7.32
A-431
  pIC50: 7.70
[26]
  pIC50: 8.92
SW-620
  pIC50: 8.37

## Cc1c(-c2csc(N)n2)sc2sc(-c3csc(N)n3)c(-c3ccccc3)c12
PC-3 [27]
  pIC50: 4.62
PC-3 [28]
  Activity: >30%

## COc1ccc(-c2nn(-c3ccccc3)cc2/C=N/Nc2nc(-c3ccc(Cl)cc3)cs2)cc1
MCF7 [29]
  Activity: 25.61%

## CCCCCCCC(=O)SCC/C=C/[C@@H]1CC(=O)NCc2nc(cs2)C2=N[C@@](C)(CS2)C(=O)N[C@@H](c2ccc(O)cc2)C(=O)O1
HCT-116 [30]
  pIC50: 6.41
A549 [31]
  GI50: 1460 nM
HEK293
  GI50: > 100000 nM
[32]
  GI50: > 100000 nM

## CC(=O)c1cccc(-c2csc(N3CCOCC3)n2)c1
[33]
  pIC50: 6.42

## COc1ccc(C2SC(N)=NC2c2cc(OC)c(OC)c(OC)c2)cc1N (centres undefined)
Colon 26 [34]
  pIC50: 7.24
Tubulin
  IC50: 1000 nM
Colon 26 [35]
  Activity: 75%

## CC1CCN(c2nc(-c3ccc4ccccc4c3)cs2)CC1
HepG2 [36]
  Activity: 57%

## O=S(=O)(Nc1ccc(-c2csc(N/N=C/c3ccc(N(CCCl)CCCl)cc3)n2)cc1)c1c(F)c(F)c(F)c(F)c1F
MCF7 [37]
  IC50: 3.42 µg/mL (≈ 5.15 µM)
MV4-11 [38]
  IC50: 2.17 µg/mL (≈ 3.27 µM)
BALB/3T3
  IC50: 3.2 µg/mL (≈ 4.82 µM)
HCT-116 [39]
  IC50: 3.02 µg/mL (≈ 4.54 µM)
MV4-11 [40]
  pIC50: 5.66
HCT-116 [41]
  IC50: 3.02 µg/mL (≈ 4.54 µM)

## CO[C@@H]1C[C@H](C[C@@H](C)[C@@H](OC(=O)C2CCCCN2C)C(C)C)CC[C@H]1OCC/N=c1\sc2cc(Cl)ccc2n1C (some centres undefined)
SK-NEP-1
  pIC50: 5.02
Ca-Ski
  pIC50: 5.08

## c1ccc2cc(-c3csc(N4CCCC4)n3)ccc2c1
HepG2 [42]
  pIC50: 5.30

## Clc1nccc2c(-c3csc(-c4c[nH]c5ncc(Br)cc45)n3)c[nH]c12
HCT-116 [43]
  GI50: 2350 nM

## Cc1ncc(C2=CCC3C4CC=C5CC(O)CCC5(C)C4CCC23C)s1 (centres undefined)
Cytochrome P450
  inhibition (INH): 72.1%

## NS(=O)(=O)c1ccc(N2C(=O)CSC2c2ccc([N+](=O)[O-])cc2)cc1 (centres undefined)
HepG2 [44]
  pIC50: 4.34

## Cc1nn2c(SCC(=O)Nc3nccs3)nc3ccccc3c2nc1=O
[45]
  GI50: 450 nM
Ovarian carcinoma cell
  GI50: 250 nM
[46]
  GI50: 480 nM

## COc1ccc(-c2csc(Nc3ccc(OC)cc3OC)n2)cc1
A549 [47]
  pIC50: 6.07
